Test results from US20180282323A1, “Mesoionic imidazole derivatives as insecticides” (BAYER CROPSCIENCE AKTIENGESELLSCHAFT, priority 2015, published 2018).
Like-named read-outs stand apart in the source and are kept apart here.

Key:
Ctenocephalides felis = Ctenocephalides felis in vitro contact test with adult cat fleas; format: in vivo; conditions: application rate 5 μg/cm^2, after 48 h, adult cat fleas dead or moribund
Procedure: Ctenocephalides felis—In Vitro Contact Tests with Adult Cat Fleas
For the coating of the test tubes, 9 mg of active ingredient are first dissolved in 1 ml of acetone p.a. and then diluted to the desired concentration with acetone p.a. 250 μl of the solution are distributed homogeneously on the inner walls and the base of a 25 ml test tube by turning and rocking on an orbital shaker (rocking rotation at 30 rpm for 2 h). With 900 ppm of active ingredient solution and internal surface area 44.7 cm^2, given homogeneous distribution, an area-based dose of 5 μg/cm^2 is achieved.
After the solvent has evaporated off, the tubes are populated with 5-10 adult cat fleas (Ctenocephalides felis), sealed with a perforated plastic lid and incubated in a horizontal position at room temperature and ambient humidity. After 48 h, efficacy is determined. To this end, the test tubes are stood upright and the fleas are knocked to the base of the tube. Fleas which remain motionless at the base or move in an uncoordinated manner are considered to be dead or moribund.
100% efficacy means that all the fleas were dead or moribund. 0% efficacy means that no fleas were harmed.

Boophilus microplus = Boophilus microplus injection test; format: in vivo; conditions: application rate 20 μg/animal, assessed after 7 days by laying of fertile eggs
Procedure: Boophilus microplus—Injection Test Solvent: dimethyl sulphoxide
To produce a suitable active ingredient formulation, 10 mg of active ingredient are mixed with 0.5 ml of solvent and the concentrate is diluted with solvent to the desired concentration.
1 μl of the active ingredient solution is injected into the abdomen of 5 engorged adult female cattle ticks (Boophilus microplus). The animals are transferred into dishes and kept in a climate-controlled room.
Efficacy is assessed after 7 days by laying of fertile eggs. Eggs which are not visibly fertile are stored in a climate-controlled cabinet until the larvae hatch after about 42 days. An efficacy of 100% means that none of the ticks has laid any fertile eggs; 0% means that all the eggs are fertile.

Lucilia cuprina = Lucilia cuprina test; format: in vivo; conditions: application rate 100 ppm, L1 larvae, after 2 days
Procedure: Lucilia cuprina Test Solvent: dimethyl sulphoxide
(§1) To produce a suitable active ingredient formulation, 10 mg of active ingredient are mixed with 0.5 ml of dimethyl sulphoxide, and the concentrate is diluted with water to the desired concentration.
About 20 L1 larvae of the Australian sheep blowfly (Lucilia cuprina) are transferred into a test vessel containing minced horsemeat and the active ingredient formulation of the desired concentration.
After 2 days, the kill in % is determined. 100% means that all the larvae have been killed; 0% means that no larvae have been killed.

Musca domestica = Musca domestica test; format: in vivo; conditions: application rate 100 ppm, adult houseflies, after 2 days
Procedure: Musca domestica Test Solvent: dimethyl sulphoxide
as §1
Vessels containing a sponge treated with sugar solution and the active ingredient formulation of the desired concentration are populated with 10 adult houseflies (Musca domestica).
After 2 days, the kill in % is determined. 100% means that all of the flies have been killed; 0% means that none of the flies have been killed.

Diabrotica balteata = Diabrotica balteata spray test; format: in vivo; conditions: application rate 160 μg/well, wheat grains with beetle larvae, after 7 days
Procedure, shortened: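 Compound in acetone/DMF with emulsifier water sprayed onto wheat seedlings germinated one day on agar, 5 grains per well. Each well then infested with 10-20 Diabrotica balteata larvae. Efficacy scored after 7 days: 100% = plant growth as uninfected control, 0% = no plants grown.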

Myzus persicae [1] = assay: Myzus persicae oral test; format: in vivo; conditions: application rate 20 ppm, oral uptake through parafilm, after 5 days; for pest or weed control at 20 ppm: Myzus persicae, 120 h, read-out: efficacy
Procedure, shortened: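 Oral feeding format: mixed-stage Myzus persicae imbibe acetone/water compound formulation in sugared IPL41 medium through parafilm. Efficacy assessed as percent aphids killed at day 5.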

Myzus persicae [2] = assay: Myzus persicae spray test (bell pepper plants); format: in vivo; conditions: application rate 100 ppm, after 6 days
Procedure: Myzus persicae—Spray Test Solvent: 14 parts by weight of dimethylformamide Emulsifier: alkylaryl polyglycol ether
(§2) To produce a suitable active ingredient formulation, 1 part by weight of active ingredient is dissolved with the stated parts by weight of solvent and made up with water containing an emulsifier concentration of 1000 ppm until the desired concentration is attained. To produce further test concentrations, the formulation is diluted with emulsifier-containing water. If the addition of ammonium salts or/and penetrants is required, these are each added in a concentration of 1000 ppm to the formulation solution.
Bell pepper plants (Capsicum annuum) severely infested with the green peach aphid (Myzus persicae) are treated by spraying with the active ingredient formulation in the desired concentration.
After 6 days, the kill in % is determined. 100% means that all of the aphids have been killed; 0% means that none of the aphids have been killed.

[3] = log P by HPLC on reversed-phase column (EEC directive 79/831 Annex V.A8); format: physicochemical; conditions: for log p: HPLC on reversed-phase column (footnote a)
Procedure, shortened: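 Reversed-phase (C18) HPLC at 43° C, following EEC directive 79/831 Annex V.A8.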

Phaedon cochleariae = Phaedon cochleariae spray test; format: in vivo; conditions: application rate 500 g/ha, Chinese cabbage leaf discs, larvae, after 7 days
Procedure: Phaedon cochleariae—Spray Test Solvent: 78.0 parts by weight of acetone • • 1.5 parts by weight of dimethylformamide Emulsifier: alkylaryl polyglycol ether
as §2, with “water.” for “water. If the addition of ammonium salts or/and penetrants is required, these are each added in a concentration of 1000 ppm to the formulation solution.”
Discs of Chinese cabbage leaves (Brassica pekinensis) are sprayed with an active ingredient formulation of the desired concentration and, after drying, populated with larvae of the mustard beetle (Phaedon cochleariae).
After 7 days, the efficacy in % is determined. 100% means that all the beetle larvae have been killed; 0% means that no beetle larvae have been killed.

Myzus persicae [4] = assay: Myzus persicae spray test (Chinese cabbage leaf discs); format: in vivo; conditions: application rate 500 g/ha, after 6 days
Procedure, shortened: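 Active ingredient was formulated in acetone/DMF and diluted with water containing 1000 ppm emulsifier. Chinese cabbage leaf discs infested with all aphid stages were sprayed, and % kill was scored after 6 days (100% = all aphids dead).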

Tetranychus urticae = Tetranychus urticae spray test, OP-resistant; format: in vivo; conditions: application rate 500 g/ha, bean leaf discs, all stages, after 6 days
Procedure: Tetranychus urticae—Spray Test, OP-Resistant Solvent: 78.0 parts by weight of acetone • • 1.5 parts by weight of dimethylformamide Emulsifier: alkylaryl polyglycol ether
as §2, with “water.” for “water. If the addition of ammonium salts or/and penetrants is required, these are each added in a concentration of 1000 ppm to the formulation solution.”
Discs of bean leaves (Phaseolus vulgaris) infested with all stages of the greenhouse red spider mite (Tetranychus urticae) are sprayed with an active ingredient formulation of the desired concentration.
After 6 days, the efficacy in % is determined. 100% means that all the spider mites have been killed; 0% means that no spider mites have been killed.

Meloidogyne incognita = Meloidogyne incognita test; format: in vivo; conditions: application rate 20 ppm, formation of galls on lettuce after 14 days
Procedure: Meloidogyne incognita Test Solvent: 125.0 parts by weight of acetone
To produce a suitable preparation of active ingredient, 1 part by weight of active ingredient is mixed with the stated amount of solvent and the concentrate is diluted with water to the desired concentration.
Vessels are filled with sand, active ingredient solution, an egg/larvae suspension of the southern root-knot nematode (Meloidogyne incognita) and lettuce seeds. The lettuce seeds germinate and the plants develop. The galls develop on the roots.
After 14 days, the nematicidal efficacy in % is determined by the formation of galls. 100% means that no galls were found; 0% means that the number of galls on the treated plants corresponds to the untreated control.

With `CCCOCC(=O)c1c([O-])n(Cc2cnc(Cl)s2)c2cccc[n+]12` [Example I-1-033] the efficacy (Ctenocephalides felis) was 90%, the efficacy (Boophilus microplus) was 80% and the “efficacy (kill in %)” value (Lucilia cuprina) was 90%. For the same compound, the “efficacy (kill in %)” value (Musca domestica) was 100%, the efficacy (Diabrotica balteata) was 100% and the efficacy (Myzus persicae [1]) was 100%. For the same compound, the “efficacy (kill in %)” value (Myzus persicae [2]) was 100% and the log p [3] was 1.92.
Compound `CCCOCC(=O)c1c([O-])n(Cc2cnc(Cl)s2)c2c(C)ccc[n+]12` [Example I-1-097] has an efficacy (Diabrotica balteata) of 100%, an efficacy (Phaedon cochleariae) of 100% and an efficacy (Myzus persicae [4]) of 90%. For the same compound, the efficacy (Myzus persicae [1]) was 100% and the log p [3] was 2.11.
Compound `O=C(CCl)c1c([O-])n(Cc2cncnc2)c2cccc[n+]12` [Example I-1-019] has an efficacy (Tetranychus urticae) of 90% and a log p [3] of 0.77.
In the case of `O=C(COc1ccccc1)c1c([O-])n(Cc2cnc(Cl)s2)c2cccc[n+]12` [Example I-1-017], the efficacy (Tetranychus urticae) is reported as 90%, the efficacy (Myzus persicae [1]) is reported as 100% and the log p [3] is reported as 2.34.
With `O=C(NC1CC1)c1c([O-])n(Cc2cnc(Cl)s2)c2cccc[n+]12` [Example I-1-111, 1-[(2-Chloro-1,3-thiazol-5-yl)methyl]-3-(cyclopropylcarbamoyl)-1H-imidazo[1,2-a]pyridin-4-ium-2-olate] the efficacy (Ctenocephalides felis) was 100%, the “efficacy (kill in %)” value (Lucilia cuprina) was 100% and the “efficacy (kill in %)” value (Musca domestica) was 100%. The efficacy (Diabrotica balteata) was 100%, the efficacy (Myzus persicae [4]) was 100% and the pest or weed control at 20 ppm (Myzus persicae [1]) was 100%. It also gave a chromatographic logP [3] of 1.63 and a chromatographic logP ([3]; pH 2.7) of 1.63.
`COCC(=O)c1c([O-])n(Cc2cnc(Cl)s2)c2c(C)ccc[n+]12` [Example I-1-082] showed an efficacy (Ctenocephalides felis) of 100%, an efficacy (Diabrotica balteata) of 100% and an efficacy (Phaedon cochleariae) of 100%. For the same compound, the efficacy (Myzus persicae [4]) was 100%, the efficacy (Myzus persicae [1]) was 100% and the log p [3] was 1.46.
Compound `Cc1ccc[n+]2c(C(=O)Cn3ccc(Cl)n3)c([O-])n(Cc3cnc(Cl)s3)c12` [Example I-1-093] has an efficacy (Phaedon cochleariae) of 100%, an efficacy (Myzus persicae [1]) of 100% and a log p [3] of 2.23.
For `O=C(Cn1cncn1)c1c([O-])n(Cc2cnc(Cl)s2)c2cccc[n+]12` [Example I-1-014], the efficacy (Tetranychus urticae) was 90%, the efficacy (Myzus persicae [1]) was 100% and the log p [3] was 1.1.
In the case of `O=C(NCC(F)(F)F)c1c([O-])n(Cc2cnc(Cl)s2)c2cccc[n+]12` [Example I-1-137], the “efficacy (kill in %)” value (Lucilia cuprina) is reported as 95%, the efficacy (Diabrotica balteata) is reported as 100% and the efficacy (Tetranychus urticae) is reported as 90%. For the same compound, the efficacy (Myzus persicae [1]) was 100%, the “efficacy (kill in %)” value (Myzus persicae [2]) was 95% and the log p [3] was 2.08.
In the case of `O=C(NC1CC1)c1c([O-])n(Cc2ccc(Cl)nc2)c2cccc[n+]12` [Example I-1-154], the “efficacy (kill in %)” value (Lucilia cuprina) is reported as 95%, the efficacy (Diabrotica balteata) is reported as 80% and the efficacy (Phaedon cochleariae) is reported as 100%. For the same compound, the efficacy (Myzus persicae [1]) was 100%, the “efficacy (kill in %)” value (Myzus persicae [2]) was 100% and the log p [3] was 1.59.
In the case of `COc1cnn(CC(=O)c2c([O-])n(Cc3cnc(Cl)s3)c3c(C)ccc[n+]23)c1` [Example I-1-094], the efficacy (Phaedon cochleariae) is reported as 100% and the log p [3] is reported as 1.75.
For `O=C(CCl)c1c([O-])n(Cc2cnc(Cl)s2)c2cccc[n+]12` [Example I-1-002, 3-(Chloroacetyl)-1-[(2-chloro-1,3-thiazol-5-yl)methyl]-1H-imidazo[1,2-a]pyridin-4-ium-2-olate], the efficacy (Tetranychus urticae) was 90%, the pest or weed control at 20 ppm (Myzus persicae [1]) was 100% and the “efficacy (kill in %)” value (Myzus persicae [2]) was 90%. The chromatographic logP [3] was 1.69 and the chromatographic logP ([3]; pH 2.7) was 1.69.
For `CCOCC(=O)c1c([O-])n(Cc2cnc(Cl)s2)c2cccc[n+]12` [Example I-1-032], the efficacy (Ctenocephalides felis) was 100%, the “efficacy (kill in %)” value (Lucilia cuprina) was 90% and the “efficacy (kill in %)” value (Musca domestica) was 100%. For the same compound, the efficacy (Diabrotica balteata) was 100%, the efficacy (Myzus persicae [1]) was 100% and the “efficacy (kill in %)” value (Myzus persicae [2]) was 100%. For the same compound, the log p [3] was 1.57.
With `CSCC(=O)c1c([O-])n(Cc2cnc(Cl)s2)c2cccc[n+]12` [Example I-1-034] the efficacy (Boophilus microplus) was 80%, the “efficacy (kill in %)” value (Lucilia cuprina) was 100% and the “efficacy (kill in %)” value (Musca domestica) was 80%. It also gave an efficacy (Diabrotica balteata) of 100%, an efficacy (Myzus persicae [4]) of 90% and an efficacy (Myzus persicae [1]) of 100%. The log p [3] was 1.73.
With `COCC(=O)c1c([O-])n(Cc2cnc(Cl)s2)c2cccc[n+]12` [Example I-1-008, 1-[(2-Chloro-1,3-thiazol-5-yl)methyl]-3-(methoxyacetyl)-1H-imidazo[1,2-a]pyridin-4-ium-2-olate] the efficacy (Boophilus microplus) was 100%, the “efficacy (kill in %)” value (Lucilia cuprina) was 90% and the “efficacy (kill in %)” value (Musca domestica) was 100%. It also gave an efficacy (Diabrotica balteata) of 100%, an efficacy (Myzus persicae [4]) of 100% and a pest or weed control at 20 ppm (Myzus persicae [1]) of 100%. The chromatographic logP [3] was 1.23 and the chromatographic logP ([3]; pH 2.7) was 1.23.
Compound `Cc1ccc[n+]2c(C(=O)Nc3c(Cl)cccc3Cl)c([O-])n(Cc3cnc(Cl)s3)c12` [Example I-1-277] has an efficacy (Diabrotica balteata) of 100%, an efficacy (Phaedon cochleariae) of 83% and a nematicidal efficacy (Meloidogyne incognita) of 90%. For the same compound, the efficacy (Myzus persicae [1]) was 100% and the “log p a)” value ([3]; HPLC on reversed-phase column) was 3.11.
Work on `CCOCC(=O)c1c([O-])n(Cc2cnc(Cl)s2)c2c(C)ccc[n+]12` [Example I-1-083] yielded an efficacy (Diabrotica balteata) of 100%, an efficacy (Phaedon cochleariae) of 100% and an efficacy (Myzus persicae [4]) of 90%. For the same compound, the efficacy (Myzus persicae [1]) was 100% and the log p [3] was 1.72.
